Read-outs that look alike come from different tables or passages of the source.
Experiments:
[1] = pH over time of 0.1 M aqueous solutions of polyhydroxy-lactones (reaction with water to free acid); type: physicochemical; details: for pH in aqueous solution: 0.1 M; for pH: 0.1 M (1.78%) aqueous solution
Excerpt: In general, because the formulation is to be applied to the skin, it is preferred to have a pH of about three to eight, to minimize irritation, and/or may be in a controlled release formulation, as discussed below. In some cases, an adjustment of the pH of the composition may be desirable because of the tendency of some polyhydroxy-lactones to react with water molecules and form free acid molecules, thereby altering the pH of the overall composition over time until the equilibrium of the reaction has been reached. This lowered pH may cause discomfort to the patient, as the compositions may irritate or sting the skin area when applied. The reaction with water is evidenced by a continued decrease in pH of the solution. As is know in the art, a freshly prepared gluconolactone 1% aqueous solution has pH 3.6. The pH changes to 2.5 after 2 hours. See, The Merck Index, 13th Edition, #4470. […]

[2] = 1% aqueous solution, cited from earlier work

Structure (SMILES)	pH in aqueous solution ([1]; 1 hour)	pH in aqueous solution ([1]; 6 hours)	pH in aqueous solution ([1]; 24 hours)	pH in aqueous solution ([1]; 48 hours)	pH in aqueous solution ([1]; 72 hours)	pH in aqueous solution ([1]; fresh)	pH ([2]; after 2 hours)	pH ([2]; freshly prepared)	pH ([1]; 0 minutes)	pH ([1]; 60 minutes)	pH ([1]; 360 minutes)	pH ([1]; 4320 minutes)
O=C1O[C@@H]([C@H](O)CO)[C@H](O)[C@H]1O [D-galactonolactone]	5.0	3.9	3.2	2.6	2.4	5.1	–	–	–	–	–	–
O=C1O[C@H]([C@@H](O)CO)C(O)=C1O [Control, ascorbic acid, reference compound]	2.1	2.1	2.1	2.1	2.1	2.1	–	–	–	–	–	–
O=C1O[C@H](CO)[C@@H](O)[C@H](O)[C@H]1O [D-gluconolactone]	2.0	1.9	1.9	1.9	1.8	2.1	2.5	3.6	2.1	2.0	1.9	1.8
O=C1O[C@@H]([C@H](O)[C@H](O)CO)[C@@H](O)C1O (stereo partly drawn) [D-glucoheptonolactone]	5.6	3.9	3.1	2.5	2.3	5.6	–	–	–	–	–	–
O=C1O[C@H](CO)[C@@H](O)[C@H]1O [D-ribonolactone]	6.1	5.9	3.9	2.8	2.6	6.2	–	–	–	–	–	–
CC1(C)COC(=O)C1O [D-pantolactone]	6.5	6.4	5.9	5.7	5.7	6.5	–	–	–	–	–	–
O=C1OC[C@@H](O)[C@H]1O [D-erythronolactone]	6.3	6.2	5.5	3.2	3.1	6.3	–	–	–	–	–	–
O=C[C@H](O)[C@H]1OC(=O)[C@@H](O)[C@H]1O [D-glucuronolactone]	5.7	4.8	3.4	2.6	2.3	5.7	–	–	–	–	–	–
O=C1O[C@@H](C(O)CO)[C@H](O)C1O (stereo partly drawn) [D-gulonolactone]	5.8	4.6	3.5	3.0	2.7	6.2	–	–	–	–	–	–
